The nature of one data set: Solubility. The format is physicochemical. An excerpt:
The solubility of 1 in 0.9 M nitric acid (HNO3) is >0.2 M. The three DGAs selected for this study were: N,N′-dimethyl-N,N′-di(n-octyl)diglycolamide (DMDODGA, 3), N,N,N′,N′-tetra(n-octyl)diglycolamide (TODGA, 4), and N,N-didodecyl-2-((1-hexyl-2-oxopiperidin-3-yl)oxy)acetamide (DDHPA, 5), whose structures are shown above. […] However, they differ in terms of binding affinity for lanthanides in the order 3>4>5. The stability of DGA-Ln complexes is affected by the size of N-alkyl substituents on the DGA ligand; larger substituents tend to obstruct the metal ion binding site that is decorated with three oxygen donor groups, resulting in diminished affinity for Lns with lower effective nuclear charge. Ligand 2, with unconstrained amide groups, was synthesized as a control substrate.
However, its performance in separating Lns is very different.

A short description of data set [1]: 1H NMR titration, binding constants for La complexes. Conditions: 1 M DNO3. An excerpt:
Complexation of 1 with lanthanides was further assessed using nuclear magnetic resonance (NMR) spectroscopy. […] As the concentration of La increases (top to bottom), a downfield shift of ˜1.1 ppm occurs in the most downfield aromatic ^1H of 1, confirming complex formation. […] For 1 alone, some heterogeneity and broadening in the peak structure is observed, which can be attributed to aggregate formation. While the ethylene glycol units solubilize 1, the hydrophobic cores still cluster together to form aggregate structures (vide infra). As the La concentration increases, it disrupts these clusters and stabilizes 1-La units. The change in chemical shift of the most downfield aromatic ^1H was used to assess binding constants for La complexes with 1 in 1 M DNO3. The results were fitted using commercial software to yield binding constants of K1>10^2 M^−1 and K2>>10^5 M^−1 for the 1:1 and 2:1 ligand to metal binding modes, respectively. […] In the Lu titration, some downfield shift was observed, but the peaks became increasingly heterogenous and broad. This may be attributed to poor binding affinity where transient interactions occur, but no stable structure was formed, which was consistent with the selectivity data presented above.

Data set [2] in a line: SAXS, radius of gyration of aggregates in solution. The class given is physicochemical. How it is done:
The mesoscale structure of 1 and 1-Pr complexes in the aqueous solution and the local coordination environment around Pr in the 1-Pr structure were investigated using small-angle X-ray scattering (SAXS) and extended X-ray absorption fine structure (EXAFS) spectroscopy at the Pr L3 edge, respectively. In the absence of Pr, 13 mM of 1 in 1 M HNO3 forms large aggregates with a radius of gyration (Rg) of ˜15 A, as represented by the steepest slope in FIG. 5a. The addition of smaller amounts of Pr (2.5 mM) reduces the aggregate size in solution by ˜5 A.
Under conditions where 1 is expected to be fully coordinated with Pr (assuming the formation of [Pr-(1)2(NO3)3], when [Pr]=7.5 mM), the aggregates further reduce in size (Rg=6.7 A). This is consistent with the trends seen in the NMR data above. In addition, variable temperature NMR was taken of 1 without and with Pr. At elevated temperatures (up to 313 K), the spectral quality of 1 degrades dramatically and is irreversible, which is indicative of additional aggregate formation in solution. In the presence of Pr, however, the ^1H chemical shifts representing 1 remain unchanged and the peaks narrow due to increased molecular motion.

Data set [3] can be described thus: Solvent extraction of Lns, separation factor Tb/Gd. To be noted: 0.1 M DGA, 1 M HNO3, 1 h. The protocol:
(§1) General procedure: a 500 microliter (μL) aqueous phase consisting of 7 mM Ln(III) (0.5 mM of each Ln(III)) in 1 M HNO3 without or with aqBLPhen 1 (3, 13, or 25 mM) was contacted with an equal volume of organic phase containing 0.1 M DGA (3, 4, or 5). The two phases were contacted in a 1:1 ratio of organic/aqueous by end-over-end rotation in individual 1.8 mL capacity snap-top Eppendorf tubes using a rotating wheel in an airbox set at 25.5±0.5° C. Contacts were performed in triplicate with a contact time of 1 hour. The samples were centrifuged at 1811 g for 2 min at room temperature to separate the phases. Each triplicate was then sub-sampled, using a 300 μL aliquot of the aqueous phase transferred to individual polypropylene tubes and diluted with 2% HNO3 for analysis using ICP-MS or ICP-OES. Two samples of the initial lanthanide solution were similarly prepared.
(§2) The ability of 1 and DGA to separate Lns was evaluated using a two-component, immiscible solvent system: nitric acid (aqueous phase containing 1) and n-dodecane with 10 vol % 1-octanol (oil phase containing DGA). The amount of Ln partitioned from the aqueous phase into the oil phase was measured using inductively coupled plasma optical emission spectroscopy or mass spectrometry. The Ln concentration in each phase was then used to calculate the separation efficiency.
(§3) The percentage of Lns in the aqueous and the oil phases is presented in FIGS. 1a-1i. for each DGA in the absence and presence of the aqueous complexant 1 (E=([Ln1]/[Ln1]0)×100%). The distribution ratios (i.e., D=[Ln1]org/[Ln1]aq) for select Lns are listed in Table 1, which also include selectivities (i.e., SFLn1/Ln2=DLn1/DLn2), for several Ln pairs. An efficient separation of Lns was achieved when DLn1>1 and DLn2<1 or ELn1>50% and ELn2<50%. […] Neither of the three DGAs can separate Lns in a single extraction stage.

Data set [4] can be described thus: Solvent extraction of Lns, distribution ratio of Sm. Conditions: 0.1 M DGA, 1 M HNO3, 1 h. How it is done: as §1, §2, §3
Data set [5] is described as follows: Solvent extraction of Lns, distribution ratio of Nd. Conditions: 0.1 M DGA, 1 M HNO3, 1 h. How it is done: as §1, §2, §3
The nature of data set [6]: Solvent extraction of Lns, distribution ratio of Gd. Conditions: 0.1 M DGA, 1 M HNO3, 1 h. How it is done:
as §1, §2, §3

A short description of data set [7]: Solvent extraction of Lns, separation factor Nd/Pr. Conditions: 0.1 M DGA, 1 M HNO3, 1 h. How it is done:
as §1, §2, §3

Data set [8] in a line: Solvent extraction of Lns, separation factor Gd/La. Conditions: 0.1 M DGA, 1 M HNO3, 1 h. How it is done:
as §1, §2, §3

Data set [9] in a line: Solvent extraction of Lns, separation factor Sm/Nd. Conditions: 0.1 M DGA, 1 M HNO3, 1 h. How it is done: as §1, §2, §3
Data set [10] in a line: Solvent extraction of Lns, separation factor Dy/Nd. To be noted: 0.1 M DGA, 1 M HNO3, 1 h. How it is done:
as §1, §2, §3

Data set [11] in a line: Extraction of 14 Lns from aqueous phase into oil phase. The protocol: as §1, §2, §3
A short description of data set [12]: Solvent extraction of Lns, distribution ratio of La. To be noted: 1 M HNO3, 1 h. How it is done: as §1, §2, §3
For data set [13] the following is noted: REE(III)-HCl-EHEHPA system; cited from earlier work.
Setting [14] is: [1] 0 mM, 0.1 M DGA in n-dodecane with 10 vol % 1-octanol, 0.5 mM each Ln.

As a reminder, the solubility is the dissolved amount per volume that the medium holds. Low values mean little dissolved substance, high ones much dissolved substance. As to `O=c1[nH]c(COCCO)c(COCCO)c2cc3ccc4cc5c(COCCO)c(COCCO)[nH]c(=O)c5nc4c3nc12` [Ligand 1, 3,4,9,10-tetrakis((2-hydroxyethoxy)methyl)-2,11-dihydrodipyrido[3,4-b:4′,3′-j]1,10 phenanthroline-1,12-dione], the solubility in “Solubility” (aqueous buffer, in 0.9 M nitric acid (HNO3)) was more than 200 mM. Besides, in data set [1], the “binding constant K1 (1:1 ligand to metal)” value is recorded as > 10^2 M^−1. The “binding constant K2 (2:1 ligand to metal)” value in data set [1] is given as > 10^5 M^−1. Besides, the “reduction of aggregate size” value in data set [2] (13 mM of 1, Pr 2.5 mM) is on record as approximately 5 A. Further, the “radius of gyration (Rg) of aggregates” value in data set [2] (13 mM of 1, [Pr]=7.5 mM) was 6.7 A; in data set [2] (13 mM of 1 in 1 M HNO3, absence of Pr), approximately 15 A.
Regarding `CCCCCCCCN(CCCCCCCC)C(=O)COCC(=O)N(CCCCCCCC)CCCCCCCC` [Ligand 4, N,N,N′,N′-tetra(n-octyl)diglycolamide], the SFTb/Gd separation factor in [3] ([1] 0 mM) is listed as 2.7; in data set [3] ([1] 3 mM), 3.4; in data set [3] ([1] 13 mM), 5.4; in [3] ([1] 25 mM), 5.3. The DSm distribution ratio is 120 in [4] ([1] 0 mM), 28.1 in data set [4] ([1] 3 mM), 2.35 in [4] ([1] 13 mM) and 1.82 in data set [4] ([1] 25 mM). The DNd distribution ratio in [5] ([1] 0 mM) was 18.6; in data set [5] ([1] 3 mM) it was 2.18; in data set [5] ([1] 13 mM), 0.15; in [5] ([1] 25 mM) it was 0.14. Besides, the DGd distribution ratio amounted to 386 in data set [6] ([1] 0 mM), 164 in data set [6] ([1] 3 mM), 19.3 in data set [6] ([1] 13 mM) and 14.2 in data set [6] ([1] 25 mM). In addition, the SFNd/Pr separation factor in data set [7] ([1] 0 mM) is listed as 2.2; in [7] ([1] 3 mM), 2.7; in [7] ([1] 13 mM), 2.2; in [7] ([1] 25 mM), 1.8. For the same compound, the SFGd/La separation factor in [8] ([1] 0 mM) was 153; in data set [8] ([1] 3 mM), 783; in data set [8] ([1] 13 mM) it was 413; in [8] ([1] 25 mM), 308. Moreover, the SFSm/Nd separation factor was 6.4 in [9] ([1] 0 mM), 13 in [9] ([1] 3 mM), 16 in data set [9] ([1] 13 mM) and 13 in [9] ([1] 25 mM). The SFDy/Nd separation factor turned out to be 70 in data set [10] ([1] 0 mM), 408 in data set [10] ([1] 3 mM), 1052 in [10] ([1] 13 mM) and 782 in data set [10] ([1] 25 mM). Moreover, the “extraction of Lns from the aqueous phase into the oil phase” value in [11] (0.1 M DGA alone, 14 Lns 0.5 mM each, 1 M HNO3) is reported as “reduced affinity for light Lns”. Further, the DLa distribution ratio is given as 2.52 in data set [12] (setting [14]); 0.21 in data set [12] ([1] 3 mM, 0.1 M DGA); 0.05 in data set [12] ([1] 13 mM, 0.1 M DGA); 0.05 in data set [12] ([1] 25 mM, 0.1 M DGA).
`CCCCC(CC)COP(=O)(O)CC(CC)CCCC` (stereo not shown) [EHEHPA, 2-ethylhexylphosphonic acid mono-(2-ethylhexyl) ester]: the “selectivity for Nd over Pr” value in [13] is recorded as 1.17.
For the compound `O=C(c1ccc2ccc3ccc(C(=O)N(CCOCCO)CCOCCO)nc3c2n1)N(CCOCCO)CCOCCO` [Ligand 2], the aqueous solubility result in “Solubility” (aqueous) is “excellent aqueous solubility”. The “affinity for light lanthanides as aqueous complexant” value in [11] (13 mM in aqueous phase, FIG. 2) is listed as “limited affinity for light lanthanides”.
Regarding `CCCCCCCCCCCCN(CCCCCCCCCCCC)C(=O)COC1CCCN(CCCCCC)C1=O` (stereo not shown) [Ligand 5, N,N-didodecyl-2-((1-hexyl-2-oxopiperidin-3-yl)oxy)acetamide], the SFTb/Gd separation factor in data set [3] ([1] 0 mM) is 3.3; in data set [3] ([1] 3 mM), 3.7; in data set [3] ([1] 13 mM), 5.1; in data set [3] ([1] 25 mM), 5.8. For the same compound, the DSm distribution ratio in [4] ([1] 0 mM) was 6.21; in data set [4] ([1] 3 mM), 2.53; in [4] ([1] 13 mM) it was 0.16; in data set [4] ([1] 25 mM), 0.17. Further, the DNd distribution ratio is 0.87 in data set [5] ([1] 0 mM), 0.32 in data set [5] ([1] 3 mM), 0.08 in [5] ([1] 13 mM) and 0.07 in data set [5] ([1] 25 mM). For the same compound, the DGd distribution ratio worked out at 23.0 in data set [6] ([1] 0 mM), 13.4 in data set [6] ([1] 3 mM), 0.98 in [6] ([1] 13 mM) and 0.88 in data set [6] ([1] 25 mM). Also, the SFNd/Pr separation factor in data set [7] ([1] 0 mM) is recorded as 2.0; in [7] ([1] 3 mM) it was 1.8; in data set [7] ([1] 13 mM), 0.9; in [7] ([1] 25 mM) it was 1.0. The SFGd/La separation factor is given as 128 in data set [8] ([1] 0 mM), 109 in [8] ([1] 3 mM), 12 in data set [8] ([1] 13 mM) and 14 in [8] ([1] 25 mM). Further, the SFSm/Nd separation factor is given as 7.2 in data set [9] ([1] 0 mM), 8.0 in data set [9] ([1] 3 mM), 2.0 in data set [9] ([1] 13 mM) and 2.5 in data set [9] ([1] 25 mM). Moreover, the SFDy/Nd separation factor in [10] ([1] 0 mM) came out at 130; in data set [10] ([1] 3 mM), 260; in [10] ([1] 13 mM) it was 133; in [10] ([1] 25 mM), 123. Further, the DLa distribution ratio in data set [12] (setting [14]) is on record as 0.18; in [12] ([1] 3 mM, 0.1 M DGA), 0.12; in data set [12] ([1] 13 mM, 0.1 M DGA) it was 0.08; in [12] ([1] 25 mM, 0.1 M DGA) it was 0.06.

The values are drawn from patent US12662714B2, “Method for separation of adjacent lanthanide elements” (UT-Battelle, LLC, priority 2022, dated 2026).
